Data on one molecule can be found in patent US9260759B2, “Pyrazoloanthrone and derivatives thereof for the treatment of cancers expressing MISRII” (The General Hospital Corporation, priority 2007, dated 2016).

Each structure is given as a SMILES string.

For one assay, the system named is c-jun. As to the kind of experiment: Western blot of anisomycin-induced c-jun phosphorylation in MOVCAR cells. Format: cell-based, mouse. The procedure:
The results are representative of several experiments.
Cells were washed in PBS and lysates were prepared in 1× Passive lysis buffer (PLB) provided with the Dual luciferase reporter assay kit (Promega). The lysates were cleared by centrifugation and the protein concentration was determined by Bradford assay (Bio-Rad, Hercules Calif.). […] of protein were loaded onto a NuPAGE 4-12% Bis-Tris gradient gel with MOPS-buffer (Invitrogen, Carlsbad Calif.) for polyacrylamide gel electrophoresis. Following transfer to a nitrocellulose by electroblotting, the membrane was blocked in 5% milk Tris-buffered saline/Tween20 (TBS-T) for 1 h at room temperature and incubated with primary antibody (pJNK, c-jun and phosph c-jun antibodies were purchased from Cell Signalling, Danvers, Mass.; amd JNK antibody was published from Santa Cruz Biotechnology, Calif.) overnight at 4° C. in 5% BSA followed by incubation with secondary horseradish peroxidase conjugated anti-rabbit antibody (Jackson ImmunoResearch, Westgrove Pa.) for 1 h. Immunoreactive proteins were detected by enhanced chemiluminescence (Pierce, Rockford Ill.). Anisomycin was purchased from Calbiochem.
The known Jun kinase activator anisomycin was used as a positive control (Hazzalin, 1998). […] Further, MIS had no effect on phosphorylation of JNK by anisomycin.
A general note: Immunoblotting shows a protein as a band on a membrane.

The next assay has as its target T1, rat MISRII (Rattus norvegicus, UniProt Q62893).
T1 construct: expressed in transfected cells; host or cells: COS7
T1 sequence (Q62893 18-557): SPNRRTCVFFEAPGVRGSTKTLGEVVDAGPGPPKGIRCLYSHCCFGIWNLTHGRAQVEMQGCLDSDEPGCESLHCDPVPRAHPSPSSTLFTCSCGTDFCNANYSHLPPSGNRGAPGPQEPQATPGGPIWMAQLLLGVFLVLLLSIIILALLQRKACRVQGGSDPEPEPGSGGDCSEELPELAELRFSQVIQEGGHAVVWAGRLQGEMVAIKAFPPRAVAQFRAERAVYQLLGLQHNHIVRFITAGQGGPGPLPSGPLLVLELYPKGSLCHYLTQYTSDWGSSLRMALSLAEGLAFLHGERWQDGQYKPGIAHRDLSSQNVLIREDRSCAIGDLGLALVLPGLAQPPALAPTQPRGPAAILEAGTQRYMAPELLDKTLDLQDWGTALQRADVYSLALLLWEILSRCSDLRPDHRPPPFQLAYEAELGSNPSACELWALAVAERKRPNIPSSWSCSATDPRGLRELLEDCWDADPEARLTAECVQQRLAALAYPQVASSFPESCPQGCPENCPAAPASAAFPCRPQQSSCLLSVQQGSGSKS
As to the kind of experiment: BRE-luciferase reporter assay in COS7 cells transfected with MISRII. It is filed as cell-based. As to conditions: for BRE-luciferase induction, MIS plus SP600125: COS7, 24 h. The text has this: COS7 cells were transiently transfected with MISRH, BRE-Luciferase and phRL-CMV. […] Control cells were transfected with a control plasmid (EGFP-N1 plasmid) instead of the receptor plasmid to keep the total DNA transfected constant. The results shown are the fold-induction over vehicle treated cells and normalized to phRL-CMV expression to correct for variations in cell number and transfection efficiency. […] The results represent the mean values from three independent experiments performed in triplicates (Error bars represent SEM, *p<0.05, **p<0.001).
To identify molecules that interact with the MISRII, we developed a reporter assay where binding to MISRII activates a firefly luciferase reporter driven by the BMP-responsive element (BRE) promoter kindly provided by Dr. Peter ten Dijke (The Netherlands Cancer Institute, The Netherlands) The BMP promoter region on mouse M. mus is located on chromosome 2 (Chr2) and corresponds to RefSeq No: NT—039207.6 93504644-93506272 (SEQ ID NO:1). The BRE-luciferase reporter (Korchynskyi and ten Dijke, 2002, Logeart-Avramoglou, 2006) has multiple optimized BMP response elements (3 SBE, 7 GC, and 4 CAGC) driving the expression of the firefly luciferase. This reporter construct together with a control Renilla luciferase reporter phRL-CMV (Promega, Madison Wis.) and a rat MISRII cDNA expression construct (Teixeira, 1996) were transiently transfected into COST cells and plated in 384 well plates. Primary screens were performed at the Harvard Institute of Chemistry and Cell Biology screening facility. Compounds from chosen libraries were added at a volume of 100 nl at 5 mg/ml concentration in DMSO into 30 μl cell media and cultured for 24 h at 37° C., after which the luciferase activity was measured with reagents from Promega according to the manufacturer's instructions. A hit was identified as causing a fold induction over the plate median and each compound was tested in duplicate in separate plates. MIS was used to control for intra- and inter-assay variability.
COS7 cells were plated at a density of 5000 cells/well in 96-well plates for secondary screens. The day after plating cells were transfected with rat MISRII receptor or EGFP-N1 (Clontech, Mountain View Calif.) together with BRE firefly luciferase reporter construct and phRL-CMV using TransIT-LT1 transfection reagent (Mirus Bio Corporation, Madison Wis.). […] Results were obtained using the Dual Luciferase reporter assay according to the manufacturer's instructions (Promega). Plates were read in a Wallac Victor2 luminometer (PerkinElmer, Wellesley Mass.).

The target of assay [1] is T2, type II receptor for TGFβ (Homo sapiens, UniProt P37173).
T2 construct: expressed in transfected cells; host or cells: COS7
As to the kind of experiment: CAGA-promoter luciferase reporter in COS7 cells co-transfected with TGFβ type II receptor. It is filed as cell-based. As to conditions: alone or in combination with the receptor-ligand, COS7 (data not shown). In general terms: In a reporter assay the amount or activity of a reporter protein is the signal.

Another assay has as its target T3, endogenous MISRII (Mus musculus, UniProt Q8K592).
T3 construct: a mouse ovarian cancer cell line, MOVCAR7, that expresses endogenous MISRII; endogenous in cells; host or cells: MOVCAR7 (mouse ovarian cancer cell line)
T3 sequence (Q8K592 16-568): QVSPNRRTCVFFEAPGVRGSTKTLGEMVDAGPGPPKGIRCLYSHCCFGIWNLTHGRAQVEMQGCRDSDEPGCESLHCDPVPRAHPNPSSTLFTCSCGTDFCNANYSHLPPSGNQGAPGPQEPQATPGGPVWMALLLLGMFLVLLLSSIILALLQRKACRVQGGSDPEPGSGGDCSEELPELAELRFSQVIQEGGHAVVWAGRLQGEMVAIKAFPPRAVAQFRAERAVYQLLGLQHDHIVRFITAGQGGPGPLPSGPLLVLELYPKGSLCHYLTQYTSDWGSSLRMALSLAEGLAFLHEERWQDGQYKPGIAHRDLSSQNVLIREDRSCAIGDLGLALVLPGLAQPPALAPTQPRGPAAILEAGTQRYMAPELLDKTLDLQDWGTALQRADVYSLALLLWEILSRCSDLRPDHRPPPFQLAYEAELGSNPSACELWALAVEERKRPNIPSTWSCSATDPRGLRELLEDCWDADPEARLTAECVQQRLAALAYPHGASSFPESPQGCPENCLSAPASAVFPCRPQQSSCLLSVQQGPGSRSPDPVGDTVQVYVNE
As to the kind of experiment: BRE-luciferase reporter assay in MOVCAR7 cells expressing endogenous MISRII. Format: cell-based.

The mark [2] stands for this setting: 5 uM SP600125 with 0.5 ug/ml MIS.

T2 sequence (P37173 23-567): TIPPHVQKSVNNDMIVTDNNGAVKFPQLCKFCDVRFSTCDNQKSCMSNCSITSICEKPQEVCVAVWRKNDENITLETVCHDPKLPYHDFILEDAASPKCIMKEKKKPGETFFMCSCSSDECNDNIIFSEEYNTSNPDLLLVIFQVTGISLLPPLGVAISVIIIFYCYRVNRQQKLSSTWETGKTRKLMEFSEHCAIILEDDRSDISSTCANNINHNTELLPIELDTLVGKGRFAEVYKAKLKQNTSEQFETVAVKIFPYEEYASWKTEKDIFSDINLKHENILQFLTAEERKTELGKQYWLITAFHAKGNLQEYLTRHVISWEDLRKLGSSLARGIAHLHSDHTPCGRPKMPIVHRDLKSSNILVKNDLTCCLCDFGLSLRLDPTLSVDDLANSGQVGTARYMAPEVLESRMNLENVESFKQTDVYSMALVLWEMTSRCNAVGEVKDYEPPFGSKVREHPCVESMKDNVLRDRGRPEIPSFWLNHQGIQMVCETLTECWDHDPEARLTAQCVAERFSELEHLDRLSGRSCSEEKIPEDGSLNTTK

For `O=C1c2ccccc2-c2n[nH]c3cccc1c23` [SP600125, anthra[1,9-cd]pyrazol-6(2H)-one], the “c-jun phosphorylation induced by 500 nM anisomycin” value in the assay on c-jun (pre-treatment 10 uM SP600125) is “marginal and inconsistent inhibition”; with c-jun (pre-treatment 25 uM) it was “inhibition of c-jun phosphorylation”. Also, the “additional induction over MIS alone” value on rat MISRII (setting [2]) is reported as “six-fold”. Further, the “BRE-luciferase induction, MIS plus SP600125” value on rat MISRII (setting [2]) was “approximately 16 fold”; at rat MISRII (10 uM SP600125 with 0.5 ug/ml MIS), 22 fold; at rat MISRII (25 uM SP600125 with 0.5 ug/ml MIS), 25 fold. On rat MISRII (10 uM SP600125 and 0.5 ug/ml MIS, after 6 h through 48 h), the “time course of luciferase activity, cotreatment over each treatment alone” value is recorded as “maintain their synergistic effect”. In addition, the “interaction of MIS and SP600125 on activation of BRE-luciferase (two-way ANOVA)” value on rat MISRII (combined compared with either alone, COS7) is reported as “synergistic effect”. Besides, the “effect on CAGA-luciferase reporter” value in assay [1] is “did not have any significant effect”. Also, on endogenous MISRII (25 μM SP600125, MOVCAR7, 24 h), the “increase in BRE-luciferase activity compared to untreated control” value is reported as 5 fold. Also, the “increase in the BRE-response, combined treatment” value at endogenous MISRII (MIS 5 μg/ml and SP600125 25 μM combined, MOVCAR7, 24 h) was 16 fold.
